Values quoted from earlier work, collected in patent US20060280815A1, “Nutritional composition which promotes weight loss, burns calories, increases thermogenesis, supports energy metabolism and/or suppresses appetite” (priority 2004, published 2006).

Settings: people with type 2 diabetes; acute abstention from caffeine

## Cn1c(=O)c2c(ncn2C)n(C)c1=O [caffeine]
  reduction of postprandial glucose levels: 21%
